The target of this experiment is Huntingtin (Homo sapiens, UniProt P42858). Put plainly: Inhibition of Huntingtin protein (unknown origin) incubated for overnight in presence of MW1/MAB2166 monoclonal antibody by ELISA-based MSD electrochemiluminescence assay. A general note: ELISA stands for enzyme-linked immunosorbent assay.
Chain of Huntingtin (P42858 whole entry): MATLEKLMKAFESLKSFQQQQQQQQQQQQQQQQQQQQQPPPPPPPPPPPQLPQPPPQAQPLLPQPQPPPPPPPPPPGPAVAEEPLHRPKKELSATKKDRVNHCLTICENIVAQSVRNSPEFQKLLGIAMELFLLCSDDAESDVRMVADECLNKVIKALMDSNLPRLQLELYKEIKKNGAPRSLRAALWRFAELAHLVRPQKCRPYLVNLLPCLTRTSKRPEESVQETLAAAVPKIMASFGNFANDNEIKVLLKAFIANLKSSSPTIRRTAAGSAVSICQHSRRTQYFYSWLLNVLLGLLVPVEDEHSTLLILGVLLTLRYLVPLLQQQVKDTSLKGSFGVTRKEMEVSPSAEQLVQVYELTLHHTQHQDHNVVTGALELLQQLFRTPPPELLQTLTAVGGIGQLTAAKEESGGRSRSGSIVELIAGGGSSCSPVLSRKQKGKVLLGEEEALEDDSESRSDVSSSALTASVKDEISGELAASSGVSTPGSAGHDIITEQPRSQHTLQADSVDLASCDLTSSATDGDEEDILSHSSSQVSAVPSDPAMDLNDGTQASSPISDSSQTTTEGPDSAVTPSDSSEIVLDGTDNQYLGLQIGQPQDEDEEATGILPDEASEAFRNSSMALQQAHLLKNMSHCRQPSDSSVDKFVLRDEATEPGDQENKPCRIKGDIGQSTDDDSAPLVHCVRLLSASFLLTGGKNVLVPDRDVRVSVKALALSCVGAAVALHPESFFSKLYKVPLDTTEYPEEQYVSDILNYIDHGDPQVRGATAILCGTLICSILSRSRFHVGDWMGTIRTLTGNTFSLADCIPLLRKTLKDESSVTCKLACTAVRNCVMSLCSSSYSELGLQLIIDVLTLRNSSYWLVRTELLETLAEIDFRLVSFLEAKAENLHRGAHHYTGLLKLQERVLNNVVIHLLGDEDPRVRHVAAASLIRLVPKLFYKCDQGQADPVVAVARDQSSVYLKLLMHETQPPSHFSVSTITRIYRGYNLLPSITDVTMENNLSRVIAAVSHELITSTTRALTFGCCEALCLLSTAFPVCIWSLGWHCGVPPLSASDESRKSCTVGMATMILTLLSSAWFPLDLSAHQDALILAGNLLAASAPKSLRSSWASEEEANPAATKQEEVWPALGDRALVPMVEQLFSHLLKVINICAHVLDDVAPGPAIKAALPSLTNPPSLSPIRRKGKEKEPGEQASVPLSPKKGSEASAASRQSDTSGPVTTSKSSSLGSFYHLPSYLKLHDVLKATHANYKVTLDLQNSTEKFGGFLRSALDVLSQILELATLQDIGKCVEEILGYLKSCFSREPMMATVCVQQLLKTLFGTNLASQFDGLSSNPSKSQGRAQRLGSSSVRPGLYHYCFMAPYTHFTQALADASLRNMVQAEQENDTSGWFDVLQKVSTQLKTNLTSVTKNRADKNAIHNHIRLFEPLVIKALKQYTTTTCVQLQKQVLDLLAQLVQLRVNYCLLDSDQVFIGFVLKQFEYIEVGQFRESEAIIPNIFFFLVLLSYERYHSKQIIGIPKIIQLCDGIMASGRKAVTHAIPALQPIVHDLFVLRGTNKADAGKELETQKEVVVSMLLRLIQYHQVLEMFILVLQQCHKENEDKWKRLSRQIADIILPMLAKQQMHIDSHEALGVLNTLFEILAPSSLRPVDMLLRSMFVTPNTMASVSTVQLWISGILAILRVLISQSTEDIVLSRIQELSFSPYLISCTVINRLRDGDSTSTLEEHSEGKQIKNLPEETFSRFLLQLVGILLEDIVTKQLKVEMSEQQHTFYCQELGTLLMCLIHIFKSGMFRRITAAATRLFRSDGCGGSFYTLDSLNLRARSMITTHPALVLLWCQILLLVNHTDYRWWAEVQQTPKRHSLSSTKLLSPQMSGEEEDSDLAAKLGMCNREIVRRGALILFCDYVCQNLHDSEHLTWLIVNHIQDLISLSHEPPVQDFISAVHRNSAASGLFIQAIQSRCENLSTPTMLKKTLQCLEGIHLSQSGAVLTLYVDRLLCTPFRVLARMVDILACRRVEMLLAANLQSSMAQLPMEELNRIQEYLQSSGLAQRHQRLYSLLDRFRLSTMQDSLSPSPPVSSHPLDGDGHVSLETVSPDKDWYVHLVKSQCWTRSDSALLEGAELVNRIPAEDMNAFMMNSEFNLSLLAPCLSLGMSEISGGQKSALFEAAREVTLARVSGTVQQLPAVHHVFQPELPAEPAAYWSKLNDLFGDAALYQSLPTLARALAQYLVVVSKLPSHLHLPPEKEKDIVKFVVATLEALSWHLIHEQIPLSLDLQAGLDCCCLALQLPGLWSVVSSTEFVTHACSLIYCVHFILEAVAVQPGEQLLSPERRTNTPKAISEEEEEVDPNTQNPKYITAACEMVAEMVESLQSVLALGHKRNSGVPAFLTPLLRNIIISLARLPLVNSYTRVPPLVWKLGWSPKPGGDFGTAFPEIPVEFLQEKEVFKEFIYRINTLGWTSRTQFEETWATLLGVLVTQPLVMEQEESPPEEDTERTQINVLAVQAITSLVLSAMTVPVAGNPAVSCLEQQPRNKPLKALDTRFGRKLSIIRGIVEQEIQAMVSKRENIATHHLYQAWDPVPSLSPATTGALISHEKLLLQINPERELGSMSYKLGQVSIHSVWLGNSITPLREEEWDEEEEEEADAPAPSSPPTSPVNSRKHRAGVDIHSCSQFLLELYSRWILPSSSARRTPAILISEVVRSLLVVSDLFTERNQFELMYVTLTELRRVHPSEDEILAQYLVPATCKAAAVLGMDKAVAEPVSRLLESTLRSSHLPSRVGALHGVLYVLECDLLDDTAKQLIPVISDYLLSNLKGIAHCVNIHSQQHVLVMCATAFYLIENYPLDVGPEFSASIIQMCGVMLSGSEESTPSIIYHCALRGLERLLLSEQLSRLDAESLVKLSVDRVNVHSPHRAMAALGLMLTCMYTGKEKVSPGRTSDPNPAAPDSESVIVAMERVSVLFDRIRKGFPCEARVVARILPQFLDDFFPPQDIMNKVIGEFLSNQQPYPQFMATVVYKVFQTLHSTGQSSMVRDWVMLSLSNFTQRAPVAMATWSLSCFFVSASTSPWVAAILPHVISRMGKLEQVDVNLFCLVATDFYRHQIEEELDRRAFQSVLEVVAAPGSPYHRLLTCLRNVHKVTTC
For orientation: IC50 means the concentration that gives 50% inhibition. Turning to `CN1CC2(C1)CN(c1nc3nnc(-c4ccc(-c5c[nH]nc5F)cc4O)cc3s1)C2`, the IC50 was ≤ 100 nM. On to `CN(c1nc2nnc(-c3ccc(-c4c[nH]nc4F)cc3O)cc2s1)C1CCNC1` (stereo unspecified), for which the IC50 is ≤ 100 nM. For `CN(c1nc2nnc(-c3ccc(-c4cn[nH]c4)cc3O)cc2s1)C1CCN(C2CC2)CC1`, the IC50 was ≤ 100 nM. For the compound `Cc1nc2ccc(-c3cc(F)c4nc(C5CCNCC5)sc4c3)cc2o1`, the IC50 is ≤ 100 nM.

As for `Cc1cn2nc(-c3cc(F)c4nc(OC5CCN(C)CC5)sc4c3)cc(C)c2n1`, the IC50 was ≤ 100 nM. With `Oc1cc(-c2cn[nH]c2)ccc1-c1cc2sc(N3CCC34CCNCC4)nc2nn1` the figure was ≤ 100 nM.

These data come from ChEMBL document CHEMBL4706724, “Novel Substituted Benzothiazole Compounds for Treating Huntington's Disease” (ACS Med Chem Lett, 2021).
